Like-named read-outs stand apart in the source and are kept apart here.
Key:
[1] = Microsomal stability assay, mouse; conditions: microsomes, pH 7.4
Description: (§1) Microsomal stability assay. The in vitro microsomal stability assay was conducted in duplicate in commercially available mouse or human liver microsomes (Sekisui XenoTech, Kansas City, KS, USA), which were supplemented with nicotinamide adenine dinucleotide phosphate (NADPH) as a cofactor. […] The reaction was initiated by the addition of 1 mmol/L NADPH, followed by incubation at 37 °C. A negative control was performed in parallel without NADPH to reveal any chemical instability or non-NADPH dependent enzymatic degradation for each compound. […] At various time points (0, 5, 15, 30, and 60 min), a 40 µL of reaction aliquot was taken and quenched with 120 µL of acetonitrile containing 0.1% formic acid. The samples were then vortexed and centrifuged at 15,000 rpm for 5 min at 4 °C. The supernatants were collected and analyzed by LC-MS/MS to determine the in vitro metabolic half-life (t1/2).

C. parvum = C. parvum growth inhibition assay (Cp-NLuc-infected HCT-8 cells); assay type: cell-based, Cryptosporidium parvum; conditions: Cryptosporidium parvum
Description: C. parvum growth inhibition assays: The in vitro growth inhibition assay of C. parvum has been previously described. Briefly, clear-bottom, white-sided 96 well plates were seeded with HCT-8 cells. Once the cells reached between 50% and 75% confluency, they were infected with Cp-NLuc oocysts (10,000/well) in complete media containing 0.6% taurocholate. At 24 h post-infection (hpi), the infected cells were treated with compounds at various concentrations. DMSO was used as a vehicle control in parallel. Parasite growth was determined at 72 hpi by measuring relative luminescence units (RLUs) using Promega Nano-Glo substrate (Promega, Madison, WI, USA) and a SpectraMax® L Microplate Reader (Molecular Devices, San Jose, CA, USA). The percent inhibition of parasite growth was calculated as [(RLUDMSO − RLUcompound)/RLUDMSO] × 100.

[2] = PAMPA membrane permeability assay; assay type: in vitro ADME
Description: PAMPA membrane permeability assay. The membrane permeability of selected compounds was evaluated using the Corning® BioCoat^TM Pre-coated PAMPA Plate System (catalog. No. 353015, Corning, Glendale, AZ, USA). The pre-coated plate assembly, which was stored at −20 °C, was thawed for 30 min at room temperature. The permeability assay was carried out in accordance with the manufacturer’s protocol. Briefly, the 96-well filter plate, pre-coated with lipids, was used as the permeation acceptor and a matching 96-well receiver plate was used as the permeation donor. […] At the end of the incubation, the plate was separated, and the final concentrations of compounds in both donor wells and acceptor wells were analyzed using LC-MS/MS. Permeability of the compounds was calculated using Equation (1): Pe = {−ln [1 − CA(t)/Ceq]}/[A × (1/VD + 1/VA) × t](1) where A = filter area (0.3 cm^2), VD = donor well volume (0.3 mL), VA = acceptor well volume (0.2 mL), t = incubation time (seconds), CA(t) = compound concentration in acceptor well at time t, and CD(t) = compound concentration in donor well at time t. Ceq was calculated using Equation (2): Ceq = [CD(t) × VD + CA(t) × VA]/(VD + VA)(2) […]

TgRH-Luc:GFP = assay: T. gondii -static versus -cidal washout assay; assay type: cell-based, Toxoplasma gondii; conditions: for treatment time after which T. gondii did not recover (killing time): at EC90 15 µM, compound washed out, read 48 h post-infection
Description: T. gondii growth inhibition assays: The T. gondii inhibition assay was described previously. Briefly, HFF cells were seeded onto white-sided, clear-bottom 96 well plates, grown to confluence, and then 5000 TgRH-Luc:GFP parasites were added to each well. At 24 hpi, compounds or DMSO were added. The growth of the parasites was determined by relative luminescence at 48 hpi using Promega Bright-Glo (Promega, Madison, WI, USA) substrate. Plates were read, and the percent inhibition of parasite growth was calculated as described above. Determination of -static versus -cidal activity was conducted as indicated above, with parasite growth quantified after 48 h of infection. Each sample was run in triplicate, and each experiment was repeated three times.

[3] = test system: C. parvum intracellular stages; assay: C. parvum immunofluorescence assay; assay type: cell-based, Cryptosporidium parvum; conditions: 7.5 µM, 20 h
Description: C. parvum and T. gondii immunofluorescence assays (IFAs): IFAs were conducted as previously described with modifications. For C. parvum IFAs, HCT-8 cells were seeded on 4-well chamber cell culture glass slides (CELLTREAT Scientific Product, Pepperell, MA, USA). At confluency, the cell monolayers were infected with 5 × 10^5 wild-type (WT) C. parvum oocysts prepared as previously described. Slides were spun at 1000 rpm for 3 min to allow oocysts to have full contact with the cell monolayers. At 4 hpi, 7.5 µM oidiolactone A or DMSO control, diluted in medium containing 0.6% taurocholic acid, was added to the infected cells for 20 h. At 24 hpi, the slides were fixed with 4% paraformaldehyde and permeabilized with 0.25% Triton-X. The slides were then blocked with 10% goat serum in 1x PBS. C. parvum intracellular stages were visualized with Sporo-glo (Waterborne inc., New Orleans, LA, USA). The slides were mounted using VECTASHIELD® PLUS Antifade Mounting Medium with DAPI (Vector Laboratories, Inc., Newark CA, USA). Representative images of the samples were taken using the Nikon AX R confocal microscope and Nikon Elements acquisition software. Image processing was performed using Fiji v1.54p.

[4] = Microsomal stability assay, human; conditions: microsomes, pH 7.4
Description: as §1

CO[C@H]1OC(=O)C=C2[C@@]13O[C@@H]3[C@H]1OC(=O)[C@@]3(C)CCC[C@@]2(C)[C@@H]13 [compound 1, oidiolactone A]
half-life at 1 µmol/L [1]: 1.84 ± 0.0717 h | EC50 (C. parvum; HCT-8, read-out: EC50 against C. parvum): 530 nM | EC50 (C. parvum; Cp-NLuc-infected HCT-8 cells, 7.5 µM to 117 nM, Figure 2E, read-out: C. parvum EC50): 529 nM | Papp at 5 h, 100 μmol/L ([2]; PAMPA, 25 °C, 5 h, 100 μmol/L, read-out: PAMPA Pe): 11 ± 1.3 ×10⁻⁶ cm/s | PAMPA permeability class ([2]; cutoff Pe 1.5 × 10^−6 cm/s): high passive permeability | EC90 (TgRH-Luc:GFP; Toxoplasma gondii): 15000 nM | treatment time after which T. gondii did not recover (killing time) (TgRH-Luc:GFP; listed as Oidiolactone A): ≤ 24 h | treatment time after which T. gondii did not recover (killing time) (TgRH-Luc:GFP; listed as oidiolactone A): 8 to 12 h | abundance of treated C. parvum parasites by IFA [3]: much lower abundances | half-life at 1 µmol/L [4]: 5.29 ± 0.278 h
